Results published in PubChem BioAssay AID248 (DTP/NCI, 2004).
Where “and” joins values, the source holds several entries; their conditions need not be identical. Equal values may be shown once. Inconclusive results and toxic doses are left out. No stated cut-off is given here; in the data, active means T/C of 150% or more; inactive means T/C below 125%.

Test system: L1210 leukemia ip in BDF1 mice, survival T/C
Assay: NCI In Vivo Anticancer Drug Screen. Data for tumor model L1210 Leukemia (intraperitoneal) in B6D2F1 (BDF1) mice
Conditions: endpoint: mean survival time, higher = longer survival
In short: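 Transplantable tumor model; survival measured in treated vs vehicle control mice. Value = treated/control.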

[1] = dose: 100.0 mg/kg/injection, schedule: Q01DX001 (ip), vehicle: saline
[2] = dose: 100.0 mg/kg/injection, schedule: Q01DX009 (ip), vehicle: saline
[3] = dose: 200.0 mg/kg/injection, schedule: Q01DX001 (ip), vehicle: saline
[4] = dose: 200.0 mg/kg/injection, schedule: Q01DX009 (ip), vehicle: saline
[5] = dose: 400.0 mg/kg/injection, schedule: Q01DX001 (ip), vehicle: saline
[6] = dose: 400.0 mg/kg/injection, schedule: Q01DX009 (ip), vehicle: saline
[7] = dose: 100.0 mg/kg/injection, schedule: Q01DX009 (ip), vehicle: acetone
[8] = dose: 100.0 mg/kg/injection, schedule: Q01DX001 (ip), vehicle: carboxymethylcellulose (CMC)
[9] = dose: 200.0 mg/kg/injection, schedule: Q01DX001 (ip), vehicle: carboxymethylcellulose (CMC)
[10] = dose: 400.0 mg/kg/injection, schedule: Q01DX001 (ip), vehicle: carboxymethylcellulose (CMC)
[11] = dose: 100.0 mg/kg/injection, schedule: Q01DX009 (ip), vehicle: Klucel (hydroxypropylcellulose) (HPC)
[12] = dose: 200.0 mg/kg/injection, schedule: Q01DX009 (ip), vehicle: Klucel (hydroxypropylcellulose) (HPC)
[13] = dose: 400.0 mg/kg/injection, schedule: Q01DX009 (ip), vehicle: Klucel (hydroxypropylcellulose) (HPC)
[14] = dose: 100.0 mg/kg/injection, schedule: Q04DX003 (ip), vehicle: Klucel (hydroxypropylcellulose) (HPC)
[15] = dose: 200.0 mg/kg/injection, schedule: Q04DX003 (ip), vehicle: Klucel (hydroxypropylcellulose) (HPC)
[16] = dose: 400.0 mg/kg/injection, schedule: Q04DX003 (ip), vehicle: Klucel (hydroxypropylcellulose) (HPC)
[17] = dose: 100.0 mg/kg/injection, schedule: Q04DX002 (ip), vehicle: Klucel (hydroxypropylcellulose) (HPC)
[18] = dose: 200.0 mg/kg/injection, schedule: Q04DX002 (ip), vehicle: Klucel (hydroxypropylcellulose) (HPC)
[19] = dose: 400.0 mg/kg/injection, schedule: Q04DX002 (ip), vehicle: Klucel (hydroxypropylcellulose) (HPC)
[20] = dose: 100.0 mg/kg/injection, schedule: Q01DX001 (ip), vehicle: saline with Tween-80
[21] = dose: 200.0 mg/kg/injection, schedule: Q01DX001 (ip), vehicle: saline with Tween-80
[22] = dose: 50.0 mg/kg/injection, schedule: Q01DX001 (ip), vehicle: saline

Measured: T/C

COC(=O)C1CC2(Br)C(Br)=C(Br)C1(Br)C2(Br)Br (stereo not drawn)
inactive: [1] 88 % of control | [2] 102 % of control | [3] 100 % of control | [4] 98 % of control | [5] 88 % of control | [6] 91 % of control

FC(F)(F)c1nc[nH]c1C(F)(F)F
inactive: dose: 6.25 mg/kg/injection, schedule: Q01DX009 (ip), vehicle: water 103 % of control | dose: 12.5 mg/kg/injection, schedule: Q01DX009 (ip), vehicle: water 97 % of control | dose: 25.0 mg/kg/injection, schedule: Q01DX009 (ip), vehicle: water 97 % of control

O=C(O)C1CCC(CC2CC3CCC2C3)CC1 (stereo not drawn)
inactive: dose: 100.0 mg/kg/injection, schedule: Q01DX009 (ip), vehicle: saline with Tween-80 90 % of control | dose: 200.0 mg/kg/injection, schedule: Q01DX009 (ip), vehicle: saline with Tween-80 96 % of control

COC1C(=O)CCC2(CO2)C1(O)C1(C)OC1CCC(C)C (stereo not drawn)
inactive: [7] 95 % of control | dose: 200.0 mg/kg/injection, schedule: Q01DX009 (ip), vehicle: acetone 92 % of control

Nc1ccc2c(c1)C(O)c1cc(N)c(Br)cc1-2 (stereo not drawn)
inactive: [8] 103 % of control | [9] 110 % of control | [10] 103 % of control

CC[As](=O)(O)c1ccccc1
inactive: dose: 6.25 mg/kg/injection, schedule: Q01DX009 (ip), vehicle: saline 89 % of control | dose: 12.5 mg/kg/injection, schedule: Q01DX009 (ip), vehicle: saline 89 % of control

CCOC(=O)C(Oc1ccc([N+](=O)[O-])cc1)C(=O)OCC
inactive: [11] 98 % of control | [12] 98 % of control | [13] 96 % of control

CC(=O)Oc1ccc2c(c1)oc(=O)c1ccc(C)cc12
inactive: [14] 92 % of control | [15] 87 % of control | [16] 92 % of control

CCOC(=O)C1CCCNC1 (stereo not drawn)
inactive: [2] 96 % of control | dose: 100.0 mg/kg/injection, schedule: Q04DX003 (ip), vehicle: saline 98 % of control | [4] 91 % of control | dose: 200.0 mg/kg/injection, schedule: Q04DX003 (ip), vehicle: saline 101 % of control | [6] 100 % of control | dose: 400.0 mg/kg/injection, schedule: Q04DX003 (ip), vehicle: saline 94 % of control

O=C(O)c1ccc(Br)cc1F
inactive: [8] 89 % of control | dose: 100.0 mg/kg/injection, schedule: Q01DX009 (ip), vehicle: carboxymethylcellulose (CMC) 109 % of control and 92 % of control | [17] 97 % of control | dose: 100.0 mg/kg/injection, schedule: Q04DX002 (ip), vehicle: carboxymethylcellulose (CMC) 104 % of control and 107 % of control | dose: 100.0 mg/kg/injection, schedule: Q04DX003 (ip), vehicle: carboxymethylcellulose (CMC) 97 % of control | [9] 99 % of control | dose: 200.0 mg/kg/injection, schedule: Q01DX009 (ip), vehicle: carboxymethylcellulose (CMC) 116 % of control and 89 % of control | [18] 97 % of control | dose: 200.0 mg/kg/injection, schedule: Q04DX002 (ip), vehicle: carboxymethylcellulose (CMC) 102 % of control and 91 % of control | dose: 200.0 mg/kg/injection, schedule: Q04DX003 (ip), vehicle: carboxymethylcellulose (CMC) 99 % of control | [10] 89 % of control | dose: 400.0 mg/kg/injection, schedule: Q01DX009 (ip), vehicle: carboxymethylcellulose (CMC) 95 % of control and 92 % of control | [19] 97 % of control | dose: 400.0 mg/kg/injection, schedule: Q04DX002 (ip), vehicle: carboxymethylcellulose (CMC) 99 % of control and 100 % of control | dose: 400.0 mg/kg/injection, schedule: Q04DX003 (ip), vehicle: carboxymethylcellulose (CMC) 105 % of control

COc1ccc(Cl)cc1NC(=O)C(Br)C(Br)c1ccccc1 (stereo not drawn)
inactive: [11] 100 % of control | [12] 97 % of control | [13] 86 % of control

CCCCSc1nc2ccccc2c(=O)n1-c1ccccc1
inactive: [20] 100 % of control | [21] 103 % of control | dose: 400.0 mg/kg/injection, schedule: Q01DX001 (ip), vehicle: saline with Tween-80 97 % of control

Cc1ccc(CN=C(N)CSS(=O)(=O)O)cc1C
inactive: [17] 97 % of control | [18] 101 % of control

O=CC12C=CC(CC1)C1C(=O)OC(=O)C12 (stereo not drawn)
inactive: dose: 75.0 mg/kg/injection, schedule: Q01DX009 (ip), vehicle: saline 112 % of control | [1] 91 % of control | dose: 150.0 mg/kg/injection, schedule: Q01DX009 (ip), vehicle: saline 97 % of control | [3] 98 % of control | dose: 300.0 mg/kg/injection, schedule: Q01DX009 (ip), vehicle: saline 91 % of control | [5] 96 % of control

CC(C)N1CCOCC1
inactive: dose: 25.0 mg/kg/injection, schedule: Q01DX009 (ip), vehicle: acetone 94 % of control | dose: 50.0 mg/kg/injection, schedule: Q01DX009 (ip), vehicle: acetone 105 % of control | [7] 102 % of control

O=C(O)c1ccccc1Cl.[Ni]
inactive: dose: 25.0 mg/kg/injection, schedule: Q04DX002 (ip), vehicle: Klucel (hydroxypropylcellulose) (HPC) 94 % of control | dose: 50.0 mg/kg/injection, schedule: Q04DX002 (ip), vehicle: Klucel (hydroxypropylcellulose) (HPC) 109 % of control

COc1ccccc1CN1CCCN(Cc2ccccc2OC)C1c1ccc(N(C)C)cc1
inactive: [22] 98 % of control | [1] 98 % of control | [3] 95 % of control | [5] 88 % of control

O=C(N/N=C/c1ccccn1)C1CCCO1 (stereo not drawn)
inactive: dose: 25.0 mg/kg/injection, schedule: Q01DX009 (ip), vehicle: saline 102 % of control | dose: 50.0 mg/kg/injection, schedule: Q01DX009 (ip), vehicle: saline 102 % of control | [2] 98 % of control and 116 % of control | [4] 117 % of control

COc1ccc(-n2cnc3c(=O)[nH]c(N)nc32)cc1NC(=O)Nc1cccc(S(=O)(=O)F)c1
inactive: dose: 50.0 mg/kg/injection, schedule: Q01DX001 (ip), vehicle: saline with Tween-80 95 % of control | [20] 92 % of control | [21] 100 % of control

COc1cc(C=O)ccc1OC(=O)Nc1ccc([N+](=O)[O-])cc1Cl
inactive: [11] 98 % of control | [14] 103 % of control | [12] 98 % of control | [15] 97 % of control | [13] 98 % of control | [16] 105 % of control

CCOC(=O)N/N=C/c1cccs1
inactive: [1] 98 % of control | [3] 96 % of control | [5] 98 % of control

CCOP(=O)(OCC)c1ccccc1Br
inactive: dose: 100.0 mg/kg/injection, schedule: Q01DX001 (ip), vehicle: acetone 89 % of control | dose: 200.0 mg/kg/injection, schedule: Q01DX001 (ip), vehicle: acetone 87 % of control | dose: 400.0 mg/kg/injection, schedule: Q01DX001 (ip), vehicle: acetone 89 % of control

CC(C)(O)C#Cc1ccccc1
inactive: dose: 50.0 mg/kg/injection, schedule: Q01DX009 (ip), vehicle: Klucel (hydroxypropylcellulose) (HPC) 99 % of control | dose: 100.0 mg/kg/injection, schedule: Q01DX005 (ip), vehicle: Klucel (hydroxypropylcellulose) (HPC) 105 % of control | [11] 99 % of control | [17] 95 % of control | dose: 200.0 mg/kg/injection, schedule: Q01DX005 (ip), vehicle: Klucel (hydroxypropylcellulose) (HPC) 97 % of control | [12] 92 % of control | [18] 113 % of control | [19] 102 % of control

COc1cccc(/C=N/Nc2nnc(N/N=C/c3cccc(OC)c3OC)c3ccccc23)c1OC
inactive: [22] 92 % of control | [1] 92 % of control | [3] 92 % of control | [5] 94 % of control

O=[N+]([O-])c1ccc(/C=C\c2ccccc2)cc1
inactive: [11] 95 % of control | [14] 98 % of control | [12] 97 % of control | [15] 98 % of control | [13] 96 % of control | [16] 96 % of control

O=C(O)/C=C/C(=O)Nc1ccc(NC(=O)/C=C/C(=O)O)cc1
inactive: dose: 100.0 mg/kg/injection, schedule: Q04DX003 (ip), vehicle: saline with Tween-80 98 % of control | dose: 200.0 mg/kg/injection, schedule: Q04DX003 (ip), vehicle: saline with Tween-80 95 % of control | dose: 400.0 mg/kg/injection, schedule: Q04DX003 (ip), vehicle: saline with Tween-80 96 % of control
